Where two headings read alike, the source gives them in different places.
Tests used:
[1] = Thermal unfolding of hairpin linkers (Tm, unfolded population punfold); assay type: physicochemical; conditions: calculated, two-state unfolding
From the text: Assuming a two-state unfolding of the trpzip linkers, the unfolded populations punfold=popen (Table 3) can be calculated using reported thermal characteristics of isolated trpzip peptides (Cochran 2001). It is important (Cochran 2001) to take into consideration bulk temperature dependences of the enthalpy and entropy differences between folded and unfolded states of trpzip peptides (Privalov 1997). Disregard for the appreciable ΔCp difference between folded and unfolded species would lead to particularly large underestimation of punfold for BTI5, since the bulk temperatures used for Ki determination were far from the trpzip4 folding transition point.
The punfold value for the BTI2 inhibitor was calculated using ΔH=11.6 kcal/mol and ΔS=39 cal/mol/K obtained in earlier studies of the gb1 peptide (Munoz 1997), which gives punfold values of 0.44 and 0.69 at 21° C. and 37° C., respectively. […] (Table 3). More importantly, all the KD values are close to those of BTI1 which contains a flexible (or random-coil) (GS)8 linker, which confirms the predicted small variation in KD values for bivalent ligands connected by flexible linkers of equal contour length and similar composition (Zhou 2001a; Zhou, 2001b).

[2] = molecular target: T1, Human α-thrombin (Homo sapiens, UniProt P00734); assay: Inhibition of thrombin-catalyzed hydrolysis of chromogenic substrate S-2366 (inhibition constant Ki); assay type: biochemical; conditions: for Kd: KD (dissociation constant of open species = Ki x popen); for Ki: pH 7.6
T1 construct: Human α-thrombin was purchased from Haemotologic Technologies, Inc., VT, USA; purchased Haemotologic Technologies, Inc., VT, USA

For `CC[C@H](C)[C@H](NC(=O)[C@H](CCC(=O)O)NC(=O)[C@H](CCC(=O)O)NC(=O)[C@H](Cc1ccccc1)NC(=O)[C@H](CC(=O)O)NC(=O)CNC(=O)[C@H](CO)NC(=O)CNC(=O)[C@H](CO)NC(=O)CNC(=O)[C@H](CO)NC(=O)CNC(=O)[C@H](CO)NC(=O)CNC(=O)[C@H](CO)NC(=O)CNC(=O)[C@H](CO)NC(=O)CNC(=O)[C@H](CO)NC(=O)CNC(=O)[C@H](CO)NC(=O)CNC(=O)[C@H]1CCCCN1C(=O)[C@H](CCCNC(=N)N)NS(=O)(=O)c1ccc(C(C)(C)C)cc1)C(=O)N1CCC[C@H]1C(=O)N[C@@H](CCC(=O)O)C(=O)N[C@@H](CCC(=O)O)C(=O)N[C@@H](Cc1ccc(O)cc1)C(=O)N[C@@H](CC(C)C)C(=O)N[C@@H](CCC(N)=O)C(=O)O` [BTI1], the “punfold (population of unfolded/open linker)” value ([1]; T = 21° C.) was 1, the “punfold (population of unfolded/open linker)” value ([1]; T = 37° C.) was 1 and the Kd ([2]; T = 21° C.) was 0.53 ± 0.03 nM. It also gave a Kd ([2]; T = 37° C.) of 1.3 ± 0.3 nM, a Ki ([2]; Ki, T = 21° C.) of 0.53 ± 0.03 nM and a Ki ([2]; T = 37° C., read-out: Ki) of 1.3 ± 0.3 nM.

— patent US10155802B2, “Locally-active anticoagulants and anti-inflammatory agents” (priority 2011, dated 2018)
